Experimental data: ChEMBL document CHEMBL3044795, “Synthesis and biological evaluation of novel benzoquinones as potential antimicrobial agents” (2013)
In brackets after ≈: the same amount, converted by molar mass.

Assays:
Format in all cases: functional
[1] = tested on: Bacillus subtilis; assay: Antibacterial activity against Bacillus subtilis ATCC 6633 assessed as growth inhibition after 24 hr; details: ATCC 6633, 24 h
[2] = tested on: Escherichia coli; assay: Antibacterial activity against Escherichia coli ATCC 11775 assessed as growth inhibition after 24 hr by two-fold serial dilution method; details: ATCC 11775, 24 h
[3] = tested on: Bacillus subtilis; assay: Antibacterial activity against Bacillus subtilis ATCC 6633 assessed as diamater of growth inhibition zone after 24 hr by agar cup diffusion method
[4] = tested on: Pseudomonas aeruginosa; assay: Antibacterial activity against Pseudomonas aeruginosa ATCC 10145 assessed as growth inhibition after 24 hr by two-fold serial dilution method; details: ATCC 10145, 24 h
[5] = tested on: Candida albicans; assay: Antifungal activity against Candida albicans DSM 70014 assessed as diamater of growth inhibition zone after 48 hr by agar cup diffusion method
[6] = tested on: Pseudomonas aeruginosa; assay: Antibacterial activity against Pseudomonas aeruginosa ATCC 10145 assessed as growth inhibition after 24 hr; details: ATCC 10145, 24 h
[7] = tested on: Candida albicans; assay: Antifungal activity against Candida albicans DSM 70014 assessed as growth inhibition after 48 hr by two-fold serial dilution method; details: DSM 70014, 48 h
[8] = tested on: Staphylococcus aureus; assay: Antibacterial activity against Staphylococcus aureus DSM 1104 assessed as growth inhibition after 24 hr by two fold serial dilution method; details: DSM 1104, 24 h
[9] = tested on: Candida albicans; assay: Antifungal activity against Candida albicans DSM 70014 assessed as growth inhibition after 48 hr; details: DSM 70014, 48 h
[10] = tested on: Staphylococcus aureus; assay: Antibacterial activity against Staphylococcus aureus DSM 1104 assessed as diamater of growth inhibition zone after 24 hr by agar cup diffusion method
[11] = tested on: Escherichia coli; assay: Antibacterial activity against Escherichia coli ATCC 11775 assessed as diamater of growth inhibition zone after 24 hr by agar cup diffusion method
[12] = tested on: Escherichia coli; assay: Antibacterial activity against Escherichia coli ATCC 11775 assessed as growth inhibition after 24 hr; details: ATCC 11775, 24 h
[13] = tested on: Staphylococcus aureus; assay: Antibacterial activity against Staphylococcus aureus DSM 1104 assessed as growth inhibition after 24 hr; details: DSM 1104, 24 h
[14] = tested on: Bacillus subtilis; assay: Antibacterial activity against Bacillus subtilis ATCC 6633 assessed as growth inhibition after 24 hr by two fold serial dilution method; details: ATCC 6633, 24 h
[15] = tested on: Pseudomonas aeruginosa; assay: Antibacterial activity against Pseudomonas aeruginosa ATCC 10145 assessed as diamater of growth inhibition zone after 24 hr by agar cup diffusion method

Compound | MBC [1] [µg/mL] | MIC [2] [µg/mL] | diameter of the inhibition zone (DIZ) [3] [mm] | MIC [4] [µg/mL] | diameter of the inhibition zone (DIZ) [5] [mm] | MBC [6] [µg/mL] | MIC [7] [µg/mL] | MIC [8] [µg/mL] | MFC [9] [µg/mL] | diameter of the inhibition zone (DIZ) [10] [mm] | diameter of the inhibition zone (DIZ) [11] [mm] | MBC [12] [µg/mL] | MBC [13] [µg/mL] | MIC [14] [µg/mL] | diameter of the inhibition zone (DIZ) [15] [mm]
COc1ccc(/C=N/N=c2\scc(-c3cc(O)ccc3O)n2-c2ccc(Cl)cc2)cc1O | 100 (≈ 214 µM) | 100 (≈ 214 µM) | 14 | 100 (≈ 214 µM) | 12 | 100 (≈ 214 µM) | 25 (≈ 53.4 µM) | 25 (≈ 53.4 µM) | 50 (≈ 107 µM) | 14 | 13 | 100 (≈ 214 µM) | 50 (≈ 107 µM) | 50 (≈ 107 µM) | 14
COc1ccc(/C=N/N=c2\scc(C3=CC(=O)C=CC3=O)n2-c2ccccc2)cc1 | 50 (≈ 120 µM) | 25 (≈ 60.2 µM) | 15 | 50 (≈ 120 µM) | 15 | 50 (≈ 120 µM) | 50 (≈ 120 µM) | 50 (≈ 120 µM) | 50 (≈ 120 µM) | 15 | 16 | 50 (≈ 120 µM) | 50 (≈ 120 µM) | 50 (≈ 120 µM) | 15
COc1ccc(OC)c(/C=N/N=c2\scc(C3=CC(=O)C=CC3=O)n2-c2ccccc2)c1 | 50 (≈ 112 µM) | 50 (≈ 112 µM) | 15 | 50 (≈ 112 µM) | 15 | 50 (≈ 112 µM) | 50 (≈ 112 µM) | 50 (≈ 112 µM) | 50 (≈ 112 µM) | 14 | 14 | 50 (≈ 112 µM) | 50 (≈ 112 µM) | 50 (≈ 112 µM) | 14
COc1cc(/C=N/N=c2\scc(C3=CC(=O)C=CC3=O)n2-c2ccccc2)ccc1O | 100 (≈ 232 µM) | 100 (≈ 232 µM) | 15 | 100 (≈ 232 µM) | 12 | 100 (≈ 232 µM) | 25 (≈ 57.9 µM) | 25 (≈ 57.9 µM) | 50 (≈ 116 µM) | 15 | 15 | 100 (≈ 232 µM) | 50 (≈ 116 µM) | 50 (≈ 116 µM) | 14
COc1ccc(/C=N/N=c2\scc(C3=CC(=O)C=CC3=O)n2-c2ccccc2)cc1O | 100 (≈ 232 µM) | 50 (≈ 116 µM) | 15 | 100 (≈ 232 µM) | 14 | 100 (≈ 232 µM) | 100 (≈ 232 µM) | 50 (≈ 116 µM) | 100 (≈ 232 µM) | 14 | 14 | 50 (≈ 116 µM) | 50 (≈ 116 µM) | 100 (≈ 232 µM) | 16
COc1ccc(OC)c(/C=N/N=c2\scc(C3=CC(=O)C=CC3=O)n2-c2ccc(C)cc2)c1 | 25 (≈ 54.4 µM) | 25 (≈ 54.4 µM) | 15 | 25 (≈ 54.4 µM) | 13 | 50 (≈ 109 µM) | 25 (≈ 54.4 µM) | 12.5 (≈ 27.2 µM) | 50 (≈ 109 µM) | 16 | 14 | 50 (≈ 109 µM) | 25 (≈ 54.4 µM) | 12.5 (≈ 27.2 µM) | 14
COc1cc(/C=N/N=c2\scc(C3=CC(=O)C=CC3=O)n2-c2ccc(C)cc2)ccc1O | 100 (≈ 224 µM) | 50 (≈ 112 µM) | 15 | 100 (≈ 224 µM) | 15 | 100 (≈ 224 µM) | 50 (≈ 112 µM) | 25 (≈ 56.1 µM) | 50 (≈ 112 µM) | 14 | 15 | 50 (≈ 112 µM) | 50 (≈ 112 µM) | 100 (≈ 224 µM) | 15
COc1ccc(/C=N/N=c2\scc(C3=CC(=O)C=CC3=O)n2-c2ccc(C)cc2)cc1O | 50 (≈ 112 µM) | 50 (≈ 112 µM) | 14 | 50 (≈ 112 µM) | 15 | 50 (≈ 112 µM) | 50 (≈ 112 µM) | 100 (≈ 224 µM) | 100 (≈ 224 µM) | 15 | 14 | 50 (≈ 112 µM) | 100 (≈ 224 µM) | 50 (≈ 112 µM) | 14
COc1ccc(/C=N/N=c2\scc(C3=CC(=O)C=CC3=O)n2-c2ccc(Cl)cc2)cc1 | 100 (≈ 222 µM) | 100 (≈ 222 µM) | 15 | 100 (≈ 222 µM) | 14 | 100 (≈ 222 µM) | 100 (≈ 222 µM) | 100 (≈ 222 µM) | 100 (≈ 222 µM) | 14 | 16 | 100 (≈ 222 µM) | 100 (≈ 222 µM) | 100 (≈ 222 µM) | 16
COc1ccc(OC)c(/C=N/N=c2\scc(C3=CC(=O)C=CC3=O)n2-c2ccc(Cl)cc2)c1 | 100 (≈ 208 µM) | 100 (≈ 208 µM) | 14 | 100 (≈ 208 µM) | 14 | 100 (≈ 208 µM) | 50 (≈ 104 µM) | 25 (≈ 52.1 µM) | 100 (≈ 208 µM) | 14 | 13 | 100 (≈ 208 µM) | 50 (≈ 104 µM) | 100 (≈ 208 µM) | 16
COc1cc(/C=N/N=c2\scc(C3=CC(=O)C=CC3=O)n2-c2ccc(Cl)cc2)ccc1O | 100 (≈ 215 µM) | 100 (≈ 215 µM) | 14 | 50 (≈ 107 µM) | 15 | 100 (≈ 215 µM) | 50 (≈ 107 µM) | 100 (≈ 215 µM) | 50 (≈ 107 µM) | 16 | 16 | 100 (≈ 215 µM) | 100 (≈ 215 µM) | 100 (≈ 215 µM) | 15
COc1ccc(/C=N/N=c2\scc(C3=CC(=O)C=CC3=O)n2-c2ccc(Cl)cc2)cc1O | 50 (≈ 107 µM) | 25 (≈ 53.7 µM) | 14 | 50 (≈ 107 µM) | 15 | 50 (≈ 107 µM) | 12.5 (≈ 26.8 µM) | 50 (≈ 107 µM) | 25 (≈ 53.7 µM) | 13 | 14 | 50 (≈ 107 µM) | 50 (≈ 107 µM) | 25 (≈ 53.7 µM) | 14
COc1cc(/C=N/N=c2\scc(-c3cc(O)ccc3O)n2-c2ccc(C)cc2)ccc1O | 50 (≈ 112 µM) | 50 (≈ 112 µM) | 15 | 50 (≈ 112 µM) | 12 | 100 (≈ 223 µM) | 50 (≈ 112 µM) | 25 (≈ 55.9 µM) | 50 (≈ 112 µM) | 15 | 14 | 100 (≈ 223 µM) | 50 (≈ 112 µM) | 50 (≈ 112 µM) | 16
COc1ccc(/C=N/N=c2\scc(-c3cc(O)ccc3O)n2-c2ccc(Cl)cc2)cc1 | 50 (≈ 111 µM) | 25 (≈ 55.3 µM) | 14 | 50 (≈ 111 µM) | 15 | 50 (≈ 111 µM) | 50 (≈ 111 µM) | 100 (≈ 221 µM) | 50 (≈ 111 µM) | 15 | 14 | 50 (≈ 111 µM) | 100 (≈ 221 µM) | 50 (≈ 111 µM) | 12
COc1ccc(OC)c(/C=N/N=c2\scc(-c3cc(O)ccc3O)n2-c2ccc(Cl)cc2)c1 | 50 (≈ 104 µM) | 25 (≈ 51.9 µM) | 15 | 50 (≈ 104 µM) | 13 | 50 (≈ 104 µM) | 50 (≈ 104 µM) | 50 (≈ 104 µM) | 100 (≈ 207 µM) | 13 | 18 | 50 (≈ 104 µM) | 100 (≈ 207 µM) | 50 (≈ 104 µM) | 16
COc1cc(/C=N/N=c2\scc(-c3cc(O)ccc3O)n2-c2ccc(Cl)cc2)ccc1O | 50 (≈ 107 µM) | 100 (≈ 214 µM) | 16 | 100 (≈ 214 µM) | 14 | 100 (≈ 214 µM) | 100 (≈ 214 µM) | 50 (≈ 107 µM) | 100 (≈ 214 µM) | 16 | 15 | 100 (≈ 214 µM) | 50 (≈ 107 µM) | 50 (≈ 107 µM) | 14
CC1(C)S[C@@H]2[C@H](NC(=O)[C@H](N)c3ccccc3)C(=O)N2[C@H]1C(=O)O.O.O.O [AMPICILLIN TRIHYDRATE] | – | 10 | – | 50 | – | – | – | 5 | – | – | – | – | – | 12.5 | –
Clc1ccccc1C(c1ccccc1)(c1ccccc1)n1ccnc1 [CLOTRIMAZOLE] | – | – | – | – | – | – | 5 (≈ 14.5 µM) | – | – | – | – | – | – | – | –
